Key:
[1] = tested on: H69 (human small cell lung cancer) tumors; experiment: Histology, fraction of necrosis in H69 tumors; assay type: in vivo, NMRI-Foxn1^nu mice
Procedure: At an average tumor size of 6.1 mm (range 5.8-6.6 mm) in largest diameter, the tumors are treated with 168 mM CaCl2 injection and electroporation as described in Example 3. Tumors are removed at skin level before treatment, 2 hours, 1, 2 and 6 days after treatment, fixated in formalin (10% neutrally buffered) and paraffin embedded. Subsequently, tissue sections with a thickness of 3 μm are HE-stained according to the routine procedure of the department. The fraction of necrosis within the tumor is estimated from HE-sections by stereological point counting using a light microscope, evaluated by a pathologist, blinded with respect to treatment status.
The difference in fraction of necrosis is assessed using one-way ANOVA with post least-squares-means test with Bonferroni correction for multiple comparisons.

[2] = tested on: N32 (rat brain glioma) tumors; experiment: Calcium electroporation of brain tumor, MRI and H&E; assay type: in vivo, Sprague Dawley rats
Procedure: N32, a rat brain glioma derived tumor cell line, and 7-11 weeks old Sprague Dawley male rats (Taconic, Hudson N.Y.) were used for the in vivo experiments. The cells were tested by rapid MAP27 panel (Taconic, Hudson N.Y.) before use without signs of infection. Inoculation of 3,000 N32 cells in 5 μl at the stereotaxic coordinates; X=2, Y=1, Z=−4 was performed and verification of tumor by MRI prior to treatment was performed two weeks after inoculation. HYPNORM™-DORMICUM™ (fentanyl/fluanisone/midazolam; VetaPharma, Leeds, U K and Roche, Basel, Switzerland) was used for anesthesia complemented with RIMADYL® (Carprofen) (Pfizer ApS, Ballerup, Denmark) for pain relief after surgery. Tumors were treated two weeks after inoculation with 1) injection of 14 μl calcium-chloride solution (168 mM) and electroporation (32 pulses of 100V for 100 μs and a frequency of 1 Hz) using an 8-electrode device developed for treatment of brain tumors, a square wave electroporator (CLINIPORATOR®, IGEA, Modena, Italy), and a switch box (Sonion), or 2) injection of 14 μl calcium-chloride solution (168 mM) and placement of electrodes but no pulses applied. MRI was performed at day 1, 3, 6, and 8 after treatment. […] The extend of necrosis, the presence of macrophages and the influence on neurons and glia cells were evaluated by H&E, PAS, NF, and GFAP staining, respectively.

[3] = tested on: muscle below MDA-MB231 tumor; experiment: Normal tissue reaction, muscle below the tumor; assay type: in vivo, NMRI-Foxn1nu mice; settings: for fraction of necrosis in muscle tissue: with electroporation, 7 days
Procedure: MDA-MB231, a human breast cancer cell line was used for the in vivo experiments. The cells were tested by rapid MAP27 panel (Taconic, Hudson N.Y.) before use without signs of infection. Cells were maintained in vitro as described in Example 1. 2.5×10^6 cells/100 μl PBS were injected subcutaneously in the flank of NMRI-Foxn1nu mice (Harlan, Indianapolis, Ind.). Tumor pieces were transplanted twice from donor mice to the flank of nude mice that were 13-19 weeks old. HYPNORM™-DORMICUM™ (fentanyl/fluanisone/midazolam; VetaPharma, Leeds, U K and Roche, Basel, Switzerland) was used for anesthesia complemented with RIMADYL® (Carprofen) (Pfizer ApS, Ballerup, Denmark) as well as lidocaine (Region Hovedstadens Apotek, Herlev, Denmark) in the incision. Mice were randomised at a tumor volume above 85 mm^3 and tumors were treated with 1) injection of calcium-chloride solution and electroporation (8 pulses of 1.0 kV/cm for 100 μs and a frequency of 1 Hz) using a 6 mm plate electrode and a square wave electroporator (CLINIPORATOR®, IGEA, Modena, Italy), 2) calcium-free physiological saline injection and electroporation (same parameters as above), 3) injection of calcium-chloride, 4) calcium-free physiological saline injection, or 5) untreated but with needle inserted in the tumor without injection and with electrodes put on the tumor without pulses applied. […] Tumor volume was calculated as ab2n/6, where “a” is the largest diameter and “b” is the largest diameter perpendicular to “a”. […] Estimation of normal tissue damages was evaluated semiquantitatively on HE-sections by light[ ]microscopy (LEICA® DM 2000 light microscope, Leica Microsystems, Wetzlar, Germany).
The presence of necrosis in the muscle samples were scored by counting numbers of necrotic myocytes per 10 HPF (400× magnification). Necrosis was only recorded if the myocytes had lost the nucleus. Increased eosinofilic intensity in the myocyte cytoplasm with a retained nucleus was not recorded as a necrotic fiber. […]

[Ca+2].[Cl-].[Cl-] [calcium chloride]
fraction of necrosis in tumors, course ([1]; 168 mM CaCl2 with electroporation, 2 hours to 6 days): progressive necrosis
fraction of necrosis in tumors ([1]; 6 days post treatment): complete
tumor size (MRI, H&E) ([2]; 14 μl 168 mM calcium alone, no pulses, 6 days after the treatment): no effect on tumor size
tumor (MRI, H&E) ([2]; 14 μl 168 mM calcium chloride with electroporation (32 pulses 100V), 8 days after the treatment): eliminated
fraction of muscle tissue affected ([3]; after calcium electroporation of the tumor above the muscle): only a minor fraction
fraction of necrosis in muscle tissue ([3]; at increasing calcium concentrations): increase in the fraction of necrosis
fraction of necrosis in muscle tissue ([3]; at increasing injection volumes): slight increase in the fraction of necrosis
